The source of these data is ChEMBL document CHEMBL1141821, “Bioactive sesquiterpenes from a Taiwanese marine sponge Parahigginsia sp” (J Nat Prod, 1999).

Common to all, as to type: functional, cell-based
Experiment [1] deals with HT-29. As to the kind of experiment: Cytotoxicity against human HT-29 cells after 6 days by MTT assay. As to conditions: HT-29, 144 h. A general note: Tetrazolium assays rely on reduction of a dye to a coloured formazan, in cell work by metabolically active cells.
A short description of experiment [2]: Cytotoxicity against human KB16 cells after 3 days by MTT assay. As to conditions: KB16, 72 h.
Experiment [3] relates to P388. As to the kind of experiment: Cytotoxicity against mouse P388 cells after 3 days by MTT assay. Conditions: P388, 72 h.
In experiment [4] the test system is A549. As to the kind of experiment: Cytotoxicity against human A549 cells after 6 days by MTT assay. Conditions: A549, 144 h.

As a reminder, the IC50 is the midpoint of a concentration-inhibition curve. The low end stands for higher potency, the high end for lower potency.

In brackets after ≈: the same amount, converted by molar mass.

As for `CC(C)=CCC[C@H](C)c1ccc(C)cc1O`, the IC50 is 8.1 mg/L (≈ 37.1 µM) in experiment [1], 8.3 mg/L (≈ 38 µM) in experiment [2] and 0.1 mg/L (≈ 0.458 µM) in experiment [3].
`COc1cc(C(=O)O)ccc1C(C)/C=C/C=C(C)C` (stereo not drawn) [PARAHIGGINIC ACID]: the IC50 in experiment [1] was 6 mg/L (≈ 23 µM); in experiment [4], 3.9 mg/L (≈ 15 µM); in experiment [2], 4.8 mg/L (≈ 18.4 µM); in experiment [3] it was 1 mg/L (≈ 3.84 µM).
With `Cc1ccc(C(C)CC(O)CC(C)C)c(O)c1` (stereo not drawn) [PARAHIGGINOL A], the 50% inhibitory concentration (IC50) in experiment [1], in experiment [4], in experiment [2] and in experiment [3] was more than 50 mg/L throughout.
Turning to `CC(=O)OC(CC(C)C)CC(C)c1ccc(C=O)cc1O` (stereo not drawn) [PARAHIGGINOL B], the IC50 is 3.5 mg/L (≈ 12 µM) in experiment [1], 10 mg/L (≈ 34.2 µM) in experiment [4], 4.9 mg/L (≈ 16.8 µM) in experiment [2] and 3 mg/L (≈ 10.3 µM) in experiment [3].
The corresponding values for `CC(=O)OC(CC(C)C)CC(C)c1ccc(C)cc1O` (stereo not drawn) [PARAHIGGINOL C] are 2.6 mg/L (≈ 9.34 µM), 2.8 mg/L (≈ 10.1 µM), 3.9 mg/L (≈ 14 µM) and 2.5 mg/L (≈ 8.98 µM).
The corresponding values for `CC(C)=C/C=C/C(C)c1ccc(C=O)c(O)c1O` (stereo not drawn) [PARAHIGGINOL D] are 3.3 mg/L (≈ 13.4 µM), 3.8 mg/L (≈ 15.4 µM), 7.2 mg/L (≈ 29.2 µM) and 2.9 mg/L (≈ 11.8 µM).
